HELM strings list units from the 5' end as sugar, base in round brackets, then linkage (d deoxyribose, r ribose, m 2'-O-methyl, p phosphodiester). Strings are as the collection lists them; they lack the last nucleoside at the 3' end of the tested compound. [moe] = 2'-O-(2-methoxyethyl) (MOE); [sp] = phosphorothioate linkage; [m5C] = 5-methylcytosine
Biological target: UBE3A-ATS
Test: mouse, dose not given
Conditions: ASO

Substance | 3 h FOB score
RNA1{[moe]([m5C])[sp].[moe](T)p.[moe](A)p.[moe](A)p.[moe](A)p.d(A)[sp].d(T)[sp].d([m5C])[sp].d([m5C])[sp].d(A)[sp].d(T)[sp].d(T)[sp].d(T)[sp].d(G)[sp].d(T)[sp].[moe]([m5C])p.[moe]([m5C])p.[moe](A)[sp].[moe](G)}$$$$ (last 3' nucleoside missing) | 3.3 score 0-7
RNA1{[moe]([m5C])[sp].[moe](T)p.[moe](A)p.[moe](A)p.[moe]([m5C])p.d(T)[sp].d(T)[sp].d(T)[sp].d(A)[sp].d(T)[sp].d(A)[sp].d(G)[sp].d(T)[sp].d(G)[sp].d(T)[sp].[moe](G)p.[moe](G)p.[moe](A)[sp].[moe](T)}$$$$ (last 3' nucleoside missing) | 5 score 0-7
RNA1{[moe]([m5C])[sp].[moe](T)p.[moe](A)p.[moe](G)p.[moe](G)p.d([m5C])[sp].d(A)[sp].d(G)[sp].d([m5C])[sp].d(T)[sp].d([m5C])[sp].d(T)[sp].d(T)[sp].d(T)[sp].d(G)[sp].[moe](T)p.[moe](A)p.[moe](G)[sp].[moe](G)}$$$$ (last 3' nucleoside missing) | 0.3 score 0-7
RNA1{[moe]([m5C])[sp].[moe](T)p.[moe](A)p.[moe](T)p.[moe]([m5C])p.d(A)[sp].d(A)[sp].d(G)[sp].d(G)[sp].d([m5C])[sp].d(T)[sp].d(G)[sp].d(T)[sp].d(T)[sp].d(A)[sp].[moe](T)p.[moe](T)p.[moe](G)[sp].[moe](G)}$$$$ (last 3' nucleoside missing) | 4 score 0-7
RNA1{[moe]([m5C])[sp].[moe](T)p.[moe](A)p.[moe](T)p.[moe]([m5C])p.d(T)[sp].d(G)[sp].d(T)[sp].d(A)[sp].d([m5C])[sp].d(A)[sp].d(A)[sp].d(A)[sp].d(A)[sp].d(T)[sp].[moe](G)p.[moe](G)p.[moe](A)[sp].[moe](A)}$$$$ (last 3' nucleoside missing) | 0 score 0-7
RNA1{[moe]([m5C])[sp].[moe](T)p.[moe](G)p.[moe](A)p.[moe](G)p.d(T)[sp].d([m5C])[sp].d(A)[sp].d(G)[sp].d(T)[sp].d([m5C])[sp].d([m5C])[sp].d(A)[sp].d(A)[sp].d(A)[sp].[moe](T)p.[moe](G)p.[moe](A)[sp].[moe](A)}$$$$ (last 3' nucleoside missing) | 0.5 score 0-7
RNA1{[moe]([m5C])[sp].[moe](T)p.[moe](G)p.[moe](A)p.[moe](T)p.[moe]([m5C])p.d(A)[sp].d([m5C])[sp].d(A)[sp].d(T)[sp].d(T)[sp].d(A)[sp].d([m5C])[sp].d([m5C])[sp].d([m5C])[sp].d(A)[sp].[moe](T)p.[moe]([m5C])[sp].[moe]([m5C])}$$$$ (last 3' nucleoside missing) | 0 score 0-7
RNA1{[moe]([m5C])[sp].[moe](T)p.[moe](G)p.[moe](A)p.[moe](T)p.d([m5C])[sp].d(A)[sp].d([m5C])[sp].d(A)[sp].d(T)[sp].d(T)[sp].d(A)[sp].d([m5C])[sp].d([m5C])[sp].d([m5C])[sp].[moe](A)p.[moe](T)p.[moe]([m5C])[sp].[moe]([m5C])}$$$$ (last 3' nucleoside missing) | 1 score 0-7
RNA1{[moe]([m5C])[sp].[moe](T)p.[moe](G)p.[moe](A)p.d(T)[sp].d([m5C])[sp].d(A)[sp].d([m5C])[sp].d(A)[sp].d(T)[sp].d(T)[sp].d(A)[sp].d([m5C])[sp].d([m5C])[sp].[moe]([m5C])p.[moe](A)p.[moe](T)p.[moe]([m5C])[sp].[moe]([m5C])}$$$$ (last 3' nucleoside missing) | 0 score 0-7
RNA1{[moe]([m5C])[sp].[moe](T)p.[moe](G)p.[moe](G)p.[moe](T)p.d(A)[sp].d(G)[sp].d(G)[sp].d(A)[sp].d(T)[sp].d([m5C])[sp].d(T)[sp].d(A)[sp].d(T)[sp].d(G)[sp].[moe](G)p.[moe]([m5C])p.[moe](A)[sp].[moe](G)}$$$$ (last 3' nucleoside missing) | 2.3 score 0-7
RNA1{[moe]([m5C])[sp].[moe](T)p.[moe](G)p.[moe](T)p.[moe](A)p.d(A)[sp].d(G)[sp].d(G)[sp].d(T)[sp].d(G)[sp].d(A)[sp].d(T)[sp].d(A)[sp].d(T)[sp].d([m5C])[sp].[moe](T)p.[moe](A)p.[moe](T)[sp].[moe](A)}$$$$ (last 3' nucleoside missing) | 3 score 0-7
RNA1{[moe]([m5C])[sp].[moe](T)p.[moe](G)p.[moe](T)p.[moe](A)p.d(A)[sp].d(G)[sp].d(T)[sp].d(A)[sp].d(T)[sp].d(A)[sp].d(G)[sp].d(A)[sp].d(T)[sp].d(G)[sp].[moe]([m5C])p.[moe]([m5C])p.[moe](T)[sp].[moe]([m5C])}$$$$ (last 3' nucleoside missing) | 3.2 score 0-7
RNA1{[moe]([m5C])[sp].[moe](T)p.[moe](G)p.[moe](T)p.[moe](A)p.d(T)[sp].d(A)[sp].d(G)[sp].d(T)[sp].d(T)[sp].d(T)[sp].d(A)[sp].d([m5C])[sp].d([m5C])[sp].d([m5C])[sp].[moe](A)p.[moe](G)p.[moe](G)[sp].[moe]([m5C])}$$$$ (last 3' nucleoside missing) | 0 score 0-7
RNA1{[moe]([m5C])[sp].[moe](T)p.[moe](G)p.[moe]([m5C])p.[moe](T)p.[moe](T)p.d([m5C])[sp].d(A)[sp].d([m5C])[sp].d([m5C])[sp].d(A)[sp].d(T)[sp].d(T)[sp].d(T)[sp].d(T)[sp].d(G)[sp].[moe](A)p.[moe]([m5C])[sp].[moe]([m5C])}$$$$ (last 3' nucleoside missing) | 0 score 0-7
RNA1{[moe]([m5C])[sp].[moe](T)p.[moe](G)p.[moe]([m5C])p.[moe](T)p.[moe]([m5C])p.d(A)[sp].d(G)[sp].d(T)[sp].d(T)[sp].d(A)[sp].d(G)[sp].d(G)[sp].d(T)[sp].d(T)[sp].d(A)[sp].[moe](G)p.[moe](T)[sp].[moe](G)}$$$$ (last 3' nucleoside missing) | 3 score 0-7
RNA1{[moe]([m5C])[sp].[moe](T)p.[moe](G)p.[moe]([m5C])p.[moe](T)p.d(T)[sp].d(A)[sp].d(T)[sp].d(G)[sp].d(T)[sp].d(A)[sp].d(G)[sp].d([m5C])[sp].d(T)[sp].d([m5C])[sp].[moe](A)p.[moe](G)p.[moe]([m5C])[sp].[moe](T)}$$$$ (last 3' nucleoside missing) | 1 score 0-7
RNA1{[moe]([m5C])[sp].[moe](T)p.[moe](G)p.[moe]([m5C])p.[moe](T)p.d(T)[sp].d([m5C])[sp].d(A)[sp].d([m5C])[sp].d([m5C])[sp].d(A)[sp].d(T)[sp].d(T)[sp].d(T)[sp].d(T)[sp].[moe](G)p.[moe](A)p.[moe]([m5C])[sp].[moe]([m5C])}$$$$ (last 3' nucleoside missing) | 1.3 score 0-7
RNA1{[moe]([m5C])[sp].[moe](T)p.[moe](G)p.[moe]([m5C])p.[moe](T)p.d([m5C])[sp].d(A)[sp].d(G)[sp].d(T)[sp].d(T)[sp].d(A)[sp].d(G)[sp].d(G)[sp].d(T)[sp].d(T)[sp].[moe](A)p.[moe](G)p.[moe](T)[sp].[moe](G)}$$$$ (last 3' nucleoside missing) | 3.3 score 0-7
RNA1{[moe]([m5C])[sp].[moe](T)p.[moe](G)p.[moe]([m5C])p.d(T)[sp].d(T)[sp].d([m5C])[sp].d(A)[sp].d([m5C])[sp].d([m5C])[sp].d(A)[sp].d(T)[sp].d(T)[sp].d(T)[sp].[moe](T)p.[moe](G)p.[moe](A)p.[moe]([m5C])[sp].[moe]([m5C])}$$$$ (last 3' nucleoside missing) | 0 score 0-7
RNA1{[moe]([m5C])[sp].[moe](T)p.[moe](G)p.[moe]([m5C])p.d(T)[sp].d([m5C])[sp].d(A)[sp].d(G)[sp].d(T)[sp].d(T)[sp].d(A)[sp].d(G)[sp].d(G)[sp].d(T)[sp].[moe](T)p.[moe](A)p.[moe](G)p.[moe](T)[sp].[moe](G)}$$$$ (last 3' nucleoside missing) | 4 score 0-7
RNA1{[moe]([m5C])[sp].[moe](T)p.[moe](T)p.[moe](A)p.[moe](A)p.d(A)[sp].d(T)[sp].d(A)[sp].d(G)[sp].d(T)[sp].d(A)[sp].d(G)[sp].d(G)[sp].d(A)[sp].d(A)[sp].[moe](A)p.[moe](G)p.[moe]([m5C])[sp].[moe]([m5C])}$$$$ (last 3' nucleoside missing) | 4.8 score 0-7
RNA1{[moe]([m5C])[sp].[moe](T)p.[moe](T)p.[moe](A)p.[moe](G)p.d(A)[sp].d(T)[sp].d(G)[sp].d(T)[sp].d(G)[sp].d(T)[sp].d(T)[sp].d(T)[sp].d(A)[sp].d(T)[sp].[moe]([m5C])p.[moe]([m5C])p.[moe](A)[sp].[moe](A)}$$$$ (last 3' nucleoside missing) | 1.2 score 0-7
RNA1{[moe]([m5C])[sp].[moe](T)p.[moe](T)p.[moe](A)p.[moe](G)p.d(G)[sp].d([m5C])[sp].d(A)[sp].d(A)[sp].d(T)[sp].d(G)[sp].d(G)[sp].d(A)[sp].d([m5C])[sp].d(T)[sp].[moe](T)p.[moe](A)p.[moe](G)[sp].[moe](T)}$$$$ (last 3' nucleoside missing) | 1 score 0-7
RNA1{[moe]([m5C])[sp].[moe](T)p.[moe](T)p.[moe](A)p.[moe](T)p.d(G)[sp].d(T)[sp].d(A)[sp].d(G)[sp].d([m5C])[sp].d(T)[sp].d([m5C])[sp].d(A)[sp].d(G)[sp].d([m5C])[sp].[moe](T)p.[moe]([m5C])p.[moe](A)[sp].[moe](A)}$$$$ (last 3' nucleoside missing) | 2 score 0-7
RNA1{[moe]([m5C])[sp].[moe](T)p.[moe](T)p.[moe](G)p.[moe](A)p.d(T)[sp].d(G)[sp].d(G)[sp].d([m5C])[sp].d(T)[sp].d(G)[sp].d(T)[sp].d(A)[sp].d(G)[sp].d([m5C])[sp].[moe](T)p.[moe](T)p.[moe](G)[sp].[moe](G)}$$$$ (last 3' nucleoside missing) | 5 score 0-7
RNA1{[moe]([m5C])[sp].[moe](T)p.[moe](T)p.[moe](T)p.[moe](A)p.d(G)[sp].d(T)[sp].d(A)[sp].d(T)[sp].d(G)[sp].d(T)[sp].d([m5C])[sp].d(G)[sp].d(A)[sp].d(G)[sp].[moe](A)p.[moe](A)p.[moe]([m5C])[sp].[moe](T)}$$$$ (last 3' nucleoside missing) | 5 score 0-7
